# Source: patent EP0636626A1, “Pyrazolopyrimidine Derivatives” (LABORATOIRES GLAXO SA, priority 1993, dated 1995)
# Target: T1, cGMP specific PDE (Phosphodiesterase type V) (Bos taurus, UniProt Q28156)
# T1 construct: The PDE V in enzyme is isolated from bovine aorta; from tissue; host or cells: bovine aorta
# Experiment: cGMP specific PDE (PDE V) inhibition, "one step" assay
# Format: biochemical
# Details: PDE V isolated from bovine aorta; concentration of inhibitor required for 50% inhibition of enzyme activity; read-out: IC₅₀
# Protocol: The affinities of compounds of formula (I) for cGMP specific PDE (Phosphodiesterase type V) may be assessed by determination of their IC₅₀ values (the concentration of inhibitor required for 50% inhibition of enzyme activity). The PDE V in enzyme is isolated from bovine aorta, essentially by the method of Lugnier et al. in Biochem. Pharmacology 35, 1743 (1986) and assays are performed using a "one step" assay adapted from the method of Wells et al in Biochim. Biophys. Acta 384, 430 (1975).
# Compounds of the invention were assayed according to the procedure described hereinabove.
row,SMILES,IC50
1,"CCCOc1ccc(NC(=O)NCC)cc1-c1nc2c(c(C)nn2C)c(=O)[nH]1 [Example 30, 1,3-Dimethyl-6-(2-propoxy-5-ethylureidophenyl)-1,5-dihydro-pyrazolo[3,4-d]pyrimidin-4-one]",1 to 10 nM
2,"CCCOc1ccc(NC(=S)NCC)cc1-c1nc2c(c(C)nn2C)c(=O)[nH]1 [Example 31, 1,3-Dimethyl-6-(2-propoxy-5-ethylthioureidophenyl)-1,5-dihydro-pyrazolo[3,4-d]pyrimidin-4-one]",1 to 10 nM
3,"CCCOc1ccc(-c2nc(C)cs2)cc1-c1nc2c(c(C)nn2CC)c(=O)[nH]1 [Example 37, 1-Ethyl-3-methyl-6-[2-propoxy-5-(4-methyl-2-thiazolyl)phenyl]-1,5-dihydro-pyrazolo[3,4-d] pyrimidin-4-one]",1 to 10 nM
4,"CCCOc1ccc(NC(=O)C(F)(F)F)cc1-c1nc2c(c(C)nn2C)c(=O)[nH]1 [Example 41, 1,3-Dimethyl-6-(2-propoxy-5-trifluoroacetamidophenyl)-1,5-dihydro-pyrazolo[3,4-d]pyrimidin-4-one]",1 to 10 nM
5,"CCCOc1ccc(-c2csc(C)n2)cc1-c1nc2c(c(C)nn2C)c(=O)[nH]1 [Example 51, 1,3-Dimethyl-6-[2-propoxy-5-(2-methyl-4-thiazolyl)phenyl]-1,5-dihydro-pyrazolo[3,4-d]pyrimidin-4-one]",1 to 10 nM
6,"CCCOc1ccc(-c2csc(C)n2)cc1-c1nc2c(c(C)nn2CC)c(=O)[nH]1 [Example 63, 1-Ethyl-3-methyl-6-[2-propoxy-5-(2-methyl-4-thiazolyl)phenyl]-1,5-dihydropyrazolo[3,4-d]pyrimidin-4-one]",1 to 10 nM
7,"CCCOc1ccc(-c2csc(-c3cccnc3)n2)cc1-c1nc2c(c(C)nn2CC)c(=O)[nH]1 [Example 65, 1-Ethyl-3-methyl-6-[2-propoxy-5-(2-(3-pyridyl)-4-thiazolyl)phenyl]-1,5-dihydropyrazolo[3,4-d]pyrimidin-4-one]",1 to 10 nM
8,"CCCOc1ccc(-c2n[nH]c(-c3ccccc3)n2)cc1-c1nc2c(c(C)nn2C)c(=O)[nH]1 [Example 67, 1,3-Dimethyl-6-[2-propoxy-5-(3-phenyl-1,2,4-triazol-5-yl)phenyl]-1,5-dihydropyrazolo[3,4-d] pyrimidin-4-one]",1 to 10 nM
9,"CCCOc1ccc(-c2ccc(C)s2)cc1-c1nc2c(c(C)nn2C)c(=O)[nH]1 [Example 69, 1,3-Dimethyl-6-[2-propoxy-5-(5-methyl-2-thienyl)phenyl]-1,5-dihydropyrazolo[3,4-d]pyrimidin-4-one]",1 to 10 nM

# Other lines, results leading:
row,IC50,SMILES
1,1 to 10 nM,"CCCOc1ccc(N)cc1-c1nc2c(c(C)nn2C)c(=O)[nH]1 [Example 7, 1,3-Dimethyl-6-(2-propoxy-5-aminophenyl)-1,5-dihydropyrazolo[3,4-d]pyrimidin-4-one]"
2,1 to 10 nM,"CCCOc1ccc(NS(C)(=O)=O)cc1-c1nc2c(c(C)nn2C)c(=O)[nH]1 [Example 11, 1,3-Dimethyl-6-(2-propoxy-5-methanesulfonamidophenyl)-1,5-dihydropyrazolo[3,4-d]pyrimidin-4-one]"
3,1 to 10 nM,"CCCOc1ccc(NC(C)=O)cc1-c1nc2c(c(C)nn2C)c(=O)[nH]1 [Example 15, 1,3-Dimethyl-6-(2-propoxy-5-acetamidophenyl)-1,5-dihydropyrazolo[3,4-d]pyrimidin-4-one]"
4,1 to 10 nM,"CCCOc1ccc(NC(=O)c2ccc(F)cc2)cc1-c1nc2c(c(C)nn2C)c(=O)[nH]1 [Example 18, 1,3-Dimethyl-6-[2-propoxy-5-(4-fluorobenzamido)phenyl]-1,5-dihydropyrazolo[3,4-d]pyrimidin-4-one]"
5,1 to 10 nM,"CCCOc1ccc(NC(=O)c2cccs2)cc1-c1nc2c(c(C)nn2C)c(=O)[nH]1 [Example 19, 1,3-Dimethyl-6-[2-propoxy-5-((2-thienyl)carboxamido)phenyl]-1,5-dihydropyrazolo[3,4-d]pyrimidin-4-one]"
6,1 to 10 nM,"CCCOc1ccc(NC(=O)OCC)cc1-c1nc2c(c(C)nn2C)c(=O)[nH]1 [Example 22, 1,3-Dimethyl-6-(2-propoxy-5-ethoxycarbonylaminophenyl)-1,5-dihydropyrazolo[3,4-d]pyrimidin-4-one]"
